Columns and labels:
Type in all cases: cell-based
[1] = system: L. sativa cultivar Romaine (LR) leaf explants; assay: Direct shoot regeneration from leaf explants, cultivar Romaine (LR)
Method: (§1) Seeds of L. sativa cultivars (New England Seed Co., Hartford, Conn.) were disinfected in a solution of 30% commercial bleach with 0.01%, Tween-20 for 5 min, rinsed five times in sterile water and placed on half strength Murashige and Skoog (MS; Murashige and Skoog, 1962) medium solidified with 0.6% Phytablend® (Caisson, N. Logan, Utah). After 21 days, fully expanded first leaves were dissected into 0.8 cm^2 and placed adaxial side on the medium. The culture medium was composed of MS basal salts, 3% sucrose and 0.6% Phytablend. Plant growth regulators were added to the medium as shown in table 1 and pH was adjusted to 5.8 prior autoclaving. Cultures were maintained at 26±2° C. at 40 μE m^2 s^−1 photon density; 16 hrs light/8 hrs dark.

[2] = system: L. sativa cultivar Simpson Elite (LS) leaf explants; assay: Direct shoot regeneration from leaf explants, cultivar Simpson Elite (LS)
Method: as §1

[3] = system: L. sativa cultivar Evola (LE) leaf explants; assay: Direct shoot regeneration from leaf explants, cultivar Evola (LE)
Method: as §1

[4] = system: L. sativa cultivar Lentissima (LL) leaf explants; assay: Direct shoot regeneration from leaf explants, cultivar Lentissima (LL)
Method: as §1

[5] = system: L. sativa cultivar Great Lake (LG) leaf explants; assay: Direct shoot regeneration from leaf explants, cultivar Great Lake (LG)
Method: as §1

Measured: EFF: Number of regenerated shoots/total explants

O=C(O)Cc1cccc2ccccc12 [NAA]
0: [1]; NAA 0.1 μg ml^−1 alone | [2]; NAA 0.1 μg ml^−1 alone | [3]; NAA 0.1 μg ml^−1 alone | [4]; NAA 0.1 μg ml^−1 alone | [5]; NAA 0.1 μg ml^−1 alone

c1ccc(CNc2ncnc3[nH]cnc23)cc1 [BAP]
0: [1]; BAP 0.1 μg ml^−1 alone | [2]; BAP 0.1 μg ml^−1 alone | [3]; BAP 0.1 μg ml^−1 alone | [4]; BAP 0.1 μg ml^−1 alone | [5]; BAP 0.1 μg ml^−1 alone

From patent US20100325756A1, “PLASTID TRANSFORMATION UTILIZING ENDOGENOUS REGULATORY ELEMENTS” (priority 2009, published 2010)
